Series [1] concerns 8S and 4S estrogen-binding complexes in uterine cytosol. The following applies: cited from earlier work.
For series [2], the system named is ovariectomized (OVX) mice. The series can be described thus: ovariectomized (OVX) mice model. The format is in vivo. Conditions: OVX mice; for body mass: after 6 weeks, intragastric; for total cholesterol (TC) in liver / triglyceride (TG) in liver: compared to controls.
The target in series [3] is T1, ER-α ligand binding domain (GST-ER-α-LBD) (Homo sapiens, UniProt P03372).
T1 construct: made in house; host or cells: E. coli
T1 sequence (P03372 311-547 limits assumed): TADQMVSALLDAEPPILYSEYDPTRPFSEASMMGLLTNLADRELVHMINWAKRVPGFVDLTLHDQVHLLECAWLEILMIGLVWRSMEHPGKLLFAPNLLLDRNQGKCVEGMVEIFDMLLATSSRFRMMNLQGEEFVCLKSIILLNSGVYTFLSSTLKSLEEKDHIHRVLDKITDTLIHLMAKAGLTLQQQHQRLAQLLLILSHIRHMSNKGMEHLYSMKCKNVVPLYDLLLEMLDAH
Kind of series: 3H-E2 competition assay on GST-ER-α-LBD beads. The following applies: 50 nM, 0.5 nM [H^3-E2], 1 μg GST-ER-α-LBD.

Series [4] relates to Bcl-2 expression in MCF-7 cells. The series can be described thus: Bcl-2 expression in MCF-7 cells (western blotting, RT-qPCR). The format is cell-based.
The subject of series [5] is BRCA1, ApoD, COX7a mRNA in MCF-7 cells. The series can be described thus: RT-qPCR of genes regulated by the estrogen classic pathway in MCF-7 cells. The format is cell-based. Conditions: for expression of ApoD: FIG. 13B.
Another series relates to MDA-MB-231 cells. The series can be described thus: MDA-MB-231 cell growth, cell counting. Conditions: 6 μM anordrin. It is filed as cell-based.
For another series, the system named is MCF-7 cells. Kind of series: glucose consumption and medium pH of MCF-7 cells. The following applies: MCF-7 cells, 60 hours. The format is cell-based.
The next series relates to normal mice. Kind of series: normal mice treated with tamoxifen, anordrin or both. Conditions: tamoxifen 4.5 μg/g body mass per day, 9 weeks.
For series [6], the system named is endometrial epithelial cells. The series can be described thus: endometrial epithelial cells in mice (histology). Conditions: monolayer vs polylayer.
Source text: Preparation of paraffin sections and HE staining: The tissue of mice was excised by surgery and fixed using 2.5% formaldehyde in 1×PBS.

`C#C[C@@]1(O)C[C@@H]2CC[C@@H]3[C@H](CC[C@@]4(C)[C@H]3CC[C@@]4(O)C#C)[C@@]2(C)C1` [Anordiol, 2β,7α-diethyl-A-nor-5α-androstane-2α,17β-diol]: in [1], the “binding to estrogen-binding complexes 4S and 8S” value is “preferentially bind the 8S complex”.

`C[C@]12CC[C@@H]3c4ccc(O)cc4CC[C@H]3[C@@H]1CC[C@@H]2O` [E2, 17-beta estradiol]: in series [2], the “fat deposits in paraffin sections of liver” value is given as “smaller fat deposits”, the body mass entry was “remained unchanged”, the “total cholesterol (TC) in liver” value was “decreased amounts” and the “triglyceride (TG) in liver” value was “decreased amounts”.

Regarding `C#C[C@@]1(OC(=O)CC)C[C@@H]2CC[C@@H]3[C@H](CC[C@@]4(C)[C@H]3CC[C@]4(C#C)OC(=O)CC)[C@H]2C1` [dinordrin], the “blocking of [H^3-E2] binding to GST-ER-α-LBD on beads” value in series [3] amounted to 63.2±5.7%. In series [4] (6 μM dinordrin, RT-qPCR), the “increase of Bcl-2 mRNA transcription” value is 147.2%±22.73%.

Take `CC(C)Oc1ccc2c(=O)c(-c3ccccc3)coc2c1` [ipriflavone]: in series [2], the body mass entry is on record as “increased”, the “total cholesterol (TC) in liver” value is recorded as “no change” and the “triglyceride (TG) in liver” value is on record as “no change”.

As to `O=C(c1ccc(OCCN2CCCCC2)cc1)c1c(-c2ccc(O)cc2)sc2cc(O)ccc12` [raloxifene], the “expression of ApoD” value in series [5] is listed as “enhance expression of ApoD”.

`CC/C(=C(\c1ccccc1)c1ccc(OCCN(C)C)cc1)c1ccccc1` [tamoxifen]: the Bcl-2 protein expression entry in series [4] (7.5 μM, western blotting) is recorded as “inhibit Bcl-2 expression”. In addition, the Bcl-2 protein expression entry in [4] (charcoal-stripped FBS in phenol red free DMEM) is recorded as “Neither tamoxifen nor anordrin or analog thereof (such as anordrin) were found to affect Bcl-2 protein expression”. In addition, the MDA-MB-231 cell growth entry in the series with MDA-MB-231 cells is “no effect”. Further, in the series with MCF-7 cells, the “glucose concentration of media / glucose consumption” value is “inhibition”. In addition, the “binding to estrogen-binding complexes 4S and 8S” value in [1] is given as “bind both estrogen-binding complexes”. Further, in the series on normal mice, the “indicators of NASH syndrome” value was “increased indicators of NASH syndrome” and the “liver TG levels” value is given as “increased”. In addition, the body mass result in the series with normal mice (normal mice) is “increase in body mass”. In [6], the “endometrial epithelial cell proliferation” value was “induce proliferation”. Also, in series [5], the “mRNA level of BRCA1” value is recorded as “significantly inhibited”, the “transcription of COX7a mRNA” value is listed as “significantly inhibited” and the “expression of ApoD” value was “enhance expression of ApoD”.

The record behind these values is US11911397B2, “Anordrin compositions and methods for treating diseases” (Zhejiang Jiachi Development Pharmaceuticals LTD, priority 2014, dated 2024).
